Among the data in publication PMC9728092 (RSC Advances, 2022) are IC50 values, retold here.

The target of the experiment is AChE (Homo sapiens, UniProt P22303). The experiment in a line: AChE inhibitory assay in vitro. Format: biochemical.
AChE, sequence (P22303 32-614): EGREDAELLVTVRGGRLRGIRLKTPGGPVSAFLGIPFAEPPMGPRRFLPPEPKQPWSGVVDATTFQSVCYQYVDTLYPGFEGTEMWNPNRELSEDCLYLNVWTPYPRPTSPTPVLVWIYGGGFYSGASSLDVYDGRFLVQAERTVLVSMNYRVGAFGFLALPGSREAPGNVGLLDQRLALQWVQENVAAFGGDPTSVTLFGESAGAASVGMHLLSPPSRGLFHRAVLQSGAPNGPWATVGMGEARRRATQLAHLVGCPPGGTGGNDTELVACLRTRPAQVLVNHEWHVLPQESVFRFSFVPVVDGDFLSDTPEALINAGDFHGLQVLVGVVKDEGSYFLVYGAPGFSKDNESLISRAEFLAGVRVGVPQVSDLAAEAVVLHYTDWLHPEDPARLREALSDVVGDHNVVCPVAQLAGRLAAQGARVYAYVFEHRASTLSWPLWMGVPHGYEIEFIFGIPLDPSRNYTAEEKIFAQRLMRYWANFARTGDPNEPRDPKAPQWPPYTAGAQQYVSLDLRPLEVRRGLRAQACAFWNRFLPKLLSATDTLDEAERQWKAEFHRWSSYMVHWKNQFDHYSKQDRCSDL
The IC50 is the concentration that inhibits the measured activity by half. The compound `O=c1c(O)c(-c2ccc(O)cc2)oc2cc(O)cc(O)c12` [Compound 8, kaempferol] came in with an IC50 of 17.9 ± 0.18 µM.

For the compound `O=c1c(O)c(-c2ccc(O)c(O)c2)oc2cc(O)cc(O)c12` [Compound 9, quercetin], the midpoint of inhibition, the IC50, lay at 3.96 ± 0.27 µM.

As to `O=C1c2c(O)cc(O)cc2O[C@H](c2ccc(O)cc2)[C@H]1O` [Compound 10, dihydrokaempferol], the IC50 was greater than 50 µM.
